Ten compounds from patent US20240124408A1 (Sanofi, priority 2020, published 2024) can be followed below.

Assay type in all cases: cell-based
Assay [1] deals with T1, human TRPM8 (Homo sapiens, UniProt Q7Z2W7).
T1 construct: expressed in transfected cells; host or cells: CHO (p658 mammalian expression vector)
Briefly: In vitro human TRPM8 fluorescence calcium flux assay (recombinant CHO cells, Fluo4-AM, FDSS6000). The following applies: recombinant CHO cells expressing human TRPM8; menthol-related EC50, normalized to 100 μM menthol. The procedure, abridged:
(§1)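 Agonist EC50 values come from sixteen-point dose responses normalized to the 100 μM menthol maximum, fitted sigmoidally. Calcium rise was followed for 3 min post-addition in recombinant CHO lines (human or pig TRPM8). Cells were dye-loaded with 2 μM Fluo4-AM, 1 h at room temperature, probenecid-containing HBSS.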
(Calcium flux is commonly read through the fluorescence of an indicator in the cells.)

Assay [2] addresses T1, human TRPM8. Briefly: In vitro human TRPM8 automated patch-clamp assay (SyncroPatch 384PE, CHO cells). The following applies: CHO cells expressing human TRPM8, 28° C. The method, then:
(§2) In Vitro Pig and Human TRPM8 Automated Patch-Clamp Assays
(§3) Automated whole-cell recordings of compound effects were performed on the SyncroPatch 384PE (Nanion Technologies, Munich, Germany) incorporated into a Biomek FX pipetting robot (Beckman Coulter, Jersey City, NJ, USA) using the same engineered CHO cell lines expressing human or pig TRPM8 channels. Data acquisition and analysis were performed with the proprietary software PatchControl 384 and DataControl 384, respectively (Nanion Technologies, Munich, Germany). All recordings were carried out using planar borosilicate glass patch clamp chips in a 384-microtiter plate format with patch hole resistances of 2-4 MO. For recordings, standard intracellular solution was used containing (in mM): 130 KF, 4 NaCl, 1 MgCl2, 0.5 CaCl2, 10 HEPES and 10 EGTA/KOH (pH 7.2) and standard extracellular solution contained in mM: 150 NaCl, 4 KCl, 0.5 CaCl2, 1 MgCl2 and 10 HEPES (pH 7.3).
(§4) Prior to the electrophysiological measurements, cells were harvested using Accutase (GIBCO, Fisher Scientific) and resuspended in warmed extracellular solution. The cell suspension was kept in the dedicated cell reservoir at 28° C. at a 1 million/ml cell density and shaken at 500 rounds per min (rpm). Experiments were performed at 28° C. throughout. Cells were distributed in high resistance 4-holes-per-well Nanion chips where they were caught on the patch holes by application of a −80 mbar pressure. The cell membrane was ruptured to obtain the whole-cell configuration with a pressure pulse of −250 mbar for 2 seconds. Voltage protocols were constructed using PatchControl 384. The cells were held at a holding potential of −60 mV and TRPM8 currents were recorded using a ramp protocol from −80 to +80 mV every 5 seconds before and after compound addition. Resulting currents were recorded at both −80 and +80 mV and current kinetics were exported and analyzed. From each plate, control wells with 200 μM menthol were recorded to validate the assay. One concentration of compound was applied to each of the other wells. For each concentration, compound response was determined by subtracting the baseline current recorded before compound addition from the maximum peak elicited currents obtained after compound addition. Then, each compound response was normalized to control condition without compound and maximum current (Emax) obtained for each compound. Nanion DataControl 384 software plotted current response for each compound concentration and was able to calculate an EC50 value for each active compound.
For orientation: In patch-clamp work, channel activity is measured electrically.

The target of assay [3] is T2, pig TRPM8 (Sus scrofa, UniProt F1SM15).
T2 construct: expressed in transfected cells; host or cells: CHO (pcDNA5/FRT/TO vector; hygromycin B and blasticidin selection)
The experiment in a line: In vitro pig TRPM8 fluorescence calcium flux assay (recombinant CHO cells, Fluo4-AM, FDSS6000). The following applies: recombinant CHO cells expressing pig TRPM8; menthol-related EC50, normalized to 100 μM menthol. The procedure, abridged: as §1

The target of assay [4] is T2, pig TRPM8. Briefly: In vitro pig TRPM8 automated patch-clamp assay (SyncroPatch 384PE, CHO cells). The following applies: CHO cells expressing pig TRPM8, 28° C. The method, then:
as §2, §3, §4

Structures are written as SMILES. Where only a bound is given, the exact number is not on record here.

T1 sequence (Q7Z2W7 whole entry): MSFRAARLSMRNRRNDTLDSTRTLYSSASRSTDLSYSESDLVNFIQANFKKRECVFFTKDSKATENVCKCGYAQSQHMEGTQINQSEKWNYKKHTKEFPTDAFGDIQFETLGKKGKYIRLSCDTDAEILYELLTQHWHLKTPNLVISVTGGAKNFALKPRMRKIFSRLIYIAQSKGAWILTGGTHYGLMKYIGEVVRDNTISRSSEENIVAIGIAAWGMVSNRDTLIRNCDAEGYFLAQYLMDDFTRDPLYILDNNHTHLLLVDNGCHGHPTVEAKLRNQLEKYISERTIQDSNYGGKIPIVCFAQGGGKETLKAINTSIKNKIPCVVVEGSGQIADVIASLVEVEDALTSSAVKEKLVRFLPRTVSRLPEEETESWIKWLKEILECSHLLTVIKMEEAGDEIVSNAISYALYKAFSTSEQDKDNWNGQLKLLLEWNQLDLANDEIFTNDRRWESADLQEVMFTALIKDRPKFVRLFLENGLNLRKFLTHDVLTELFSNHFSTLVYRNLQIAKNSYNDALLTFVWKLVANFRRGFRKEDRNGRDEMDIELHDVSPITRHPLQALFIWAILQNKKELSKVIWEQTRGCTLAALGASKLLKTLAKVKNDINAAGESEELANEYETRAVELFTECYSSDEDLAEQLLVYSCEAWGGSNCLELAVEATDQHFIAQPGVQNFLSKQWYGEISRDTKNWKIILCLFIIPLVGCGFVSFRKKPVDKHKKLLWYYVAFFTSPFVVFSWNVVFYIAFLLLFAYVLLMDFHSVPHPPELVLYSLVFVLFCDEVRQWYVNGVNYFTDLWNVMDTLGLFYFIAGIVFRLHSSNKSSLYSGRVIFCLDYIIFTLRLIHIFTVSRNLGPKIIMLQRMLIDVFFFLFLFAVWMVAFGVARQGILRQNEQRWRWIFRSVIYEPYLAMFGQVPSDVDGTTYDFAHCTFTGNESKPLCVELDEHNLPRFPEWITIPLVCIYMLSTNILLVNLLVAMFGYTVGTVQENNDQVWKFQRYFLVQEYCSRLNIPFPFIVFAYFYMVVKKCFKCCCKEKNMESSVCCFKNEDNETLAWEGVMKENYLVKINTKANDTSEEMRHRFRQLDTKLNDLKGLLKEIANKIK
T2 sequence (F1SM15 1-1104): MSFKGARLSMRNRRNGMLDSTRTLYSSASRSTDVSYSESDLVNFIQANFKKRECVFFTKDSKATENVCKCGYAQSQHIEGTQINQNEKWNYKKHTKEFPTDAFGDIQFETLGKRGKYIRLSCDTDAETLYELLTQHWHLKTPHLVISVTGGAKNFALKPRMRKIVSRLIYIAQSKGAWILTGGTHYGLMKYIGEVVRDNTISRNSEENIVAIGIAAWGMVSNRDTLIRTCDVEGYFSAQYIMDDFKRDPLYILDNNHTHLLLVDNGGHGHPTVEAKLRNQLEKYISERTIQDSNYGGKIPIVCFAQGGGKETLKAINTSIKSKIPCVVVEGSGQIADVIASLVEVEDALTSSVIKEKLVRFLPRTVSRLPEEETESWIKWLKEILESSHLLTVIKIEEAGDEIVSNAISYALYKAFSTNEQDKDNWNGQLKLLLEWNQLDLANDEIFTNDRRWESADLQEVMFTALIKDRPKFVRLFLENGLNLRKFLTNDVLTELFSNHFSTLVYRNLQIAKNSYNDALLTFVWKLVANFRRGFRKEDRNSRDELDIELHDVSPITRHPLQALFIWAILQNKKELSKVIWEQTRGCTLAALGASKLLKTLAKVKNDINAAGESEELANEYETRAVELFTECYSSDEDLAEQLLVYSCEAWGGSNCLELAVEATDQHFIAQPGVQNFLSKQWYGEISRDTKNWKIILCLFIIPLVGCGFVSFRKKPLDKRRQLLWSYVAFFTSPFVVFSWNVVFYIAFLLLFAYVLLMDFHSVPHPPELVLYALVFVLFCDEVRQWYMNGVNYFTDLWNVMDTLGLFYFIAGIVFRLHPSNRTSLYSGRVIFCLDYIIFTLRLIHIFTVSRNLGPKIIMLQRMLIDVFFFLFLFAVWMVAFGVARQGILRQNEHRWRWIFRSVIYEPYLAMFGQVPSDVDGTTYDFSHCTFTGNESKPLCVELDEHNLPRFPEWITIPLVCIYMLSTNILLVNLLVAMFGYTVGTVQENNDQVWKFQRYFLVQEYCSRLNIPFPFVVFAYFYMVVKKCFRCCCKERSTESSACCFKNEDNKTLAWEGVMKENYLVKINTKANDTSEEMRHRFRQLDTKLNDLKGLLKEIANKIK

As usually defined, the EC50 is the midpoint of the concentration-response curve. In the case of `CC(C)[C@@H]1CC[C@@H](C)C[C@@]1(O)C(=O)N[C@H](CO)Cc1ccccc1` [Example 146, (1S,2S,5R)-N-[(1S)-1-benzyl-2-hydroxy-ethyl]-1-hydroxy-2-isopropyl-5-methyl-cyclohexanecarboxamide], the concentration giving a half-maximal response (EC50) in assay [1] was 16 nM; in assay [2] it was 1200 nM; in assay [3], 16 nM; in assay [4], 2390 nM.

Regarding `CC(C)[C@@H]1CC[C@@H](C)C[C@@]1(O)C(=O)NCC(CO)c1ccccc1` (single isomer, unassigned) [Example 90], the EC50 was 41.8 nM in assay [1], 3000 nM in assay [2], 14.4 nM in assay [3] and 2000 nM in assay [4].

For `CC(C)[C@@H]1CC[C@@H](C)C[C@@]1(O)C(=O)NCC1(O)CCc2ccc(Cl)cc21` (stereo partly drawn) [Example 145, (1S,2S,5R)-N-[(6-chloro-1-hydroxy-indan-1-yl)methyl]-1-hydroxy-2-isopropyl-5-methyl-cyclohexanecarboxamide], the 50% effective concentration (EC50) in assay [1] is 2.9 nM; in assay [2] it was 230 nM; in assay [3] it was 2.7 nM; in assay [4], 515 nM.

As to `CC(C)[C@@H]1CC[C@@H](C)C[C@@]1(O)C(=O)NCC(=O)c1cccc(F)c1F` [Example 142, (1S,2S,5R)-N-[2-(2,3-difluorophenyl)-2-oxo-ethyl]-1-hydroxy-2-isopropyl-5-methyl-cyclohexanecarboxamide], the concentration for a half-maximal effect (EC50) turned out to be 12 nM in assay [1], 1410 nM in assay [2], 4 nM in assay [3] and 3290 nM in assay [4].

As for `COc1ccccc1C(F)(F)CNC(=O)[C@]1(O)C[C@H](C)CC[C@H]1C(C)C` [Example 186, (1S,2S,5R)—N-[2,2-difluoro-2-(2-methoxyphenyl)ethyl]-1-hydroxy-2-isopropyl-5-methyl-cyclohexanecarboxamide], the EC50 was 43.9 nM in assay [1], 1000 nM in assay [2], 26.1 nM in assay [3] and 2100 nM in assay [4].

On to `CC(C)[C@@H]1CC[C@@H](C)C[C@@]1(O)C(=O)NCCc1ccccn1` [Example 125, (1S,2S,5R)-1-hydroxy-2-isopropyl-5-methyl-N-[2-(2-pyridyl)ethyl]cyclohexanecarboxamide], for which the concentration giving a half-maximal response (EC50) in assay [1] came out at 42.3 nM; in assay [2], 5900 nM; in assay [3], 15.2 nM; in assay [4] it was 7740 nM.

For `CC(C)[C@@H]1CC[C@@H](C)C[C@@]1(O)C(=O)NC[C@@H](OCCO)c1ccccc1` [Example 56, (1S,2S,5R)-1-hydroxy-N—((S)-2-(2-hydroxyethoxy)-2-phenylethyl)-2-isopropyl-5-methylcyclohexane-1-carboxamide], the EC50 is 19.6 nM in assay [1], > 10000 nM in assay [2], 11.2 nM in assay [3] and 6160 nM in assay [4].

As to `CC(C)[C@@H]1CC[C@@H](C)C[C@@]1(O)C(=O)NC[C@H](O)c1cccc(CO)c1` [Example 43, (1S,2S,5R)-1-hydroxy-N-((2R)-hydroxy-2-(3-(hydroxymethyl)phenyl)ethyl)-2-isopropyl-5-methylcyclohexane-1-carboxamide], the EC50 in assay [1] worked out at 191 nM; in assay [2], 4000 nM; in assay [3] it was 56.9 nM; in assay [4], 3970 nM.

Consider `Cc1cccc(C(F)(F)CNC(=O)[C@]2(O)C[C@H](C)CC[C@H]2C(C)C)c1` [Example 187, (1S,2S,5R)—N-[2,2-difluoro-2-(3-methylphenyl)ethyl]-1-hydroxy-2-isopropyl-5-methyl-cyclohexanecarboxamide], for which the concentration for a half-maximal effect (EC50) came out at 33.8 nM in assay [1], 510 nM in assay [2], 6.2 nM in assay [3] and 550 nM in assay [4].

For `CC(C)[C@@H]1CC[C@@H](C)C[C@@]1(O)C(=O)NCCc1cccc2c1OCC2` [Example 159, (1S,2S,5R)-N-[2-(2,3-dihydrobenzofuran-7-yl)ethyl]-1-hydroxy-2-isopropyl-5-methyl-cyclohexanecarboxamide], the 50% effective concentration (EC50) in assay [1] came out at 9.2 nM; in assay [2], 1000 nM; in assay [3] it was 4.9 nM; in assay [4], 1030 nM.
